Test results taken from ChEMBL document CHEMBL5723587, “Data for DCP probe BI-113823” (2024).
The source made the active and inactive calls. The rule behind the calls is not given here.

Columns and labels:
[1] = target: Glutamate receptor ionotropic, kainate 1 (Rattus norvegicus) (UniProt P22756); test: Activity against KAINATE/R in the Eurofins SafetyScreen44 (BI) by Radioactive Assay; details: Compound concentration 10.0 uM
[2] = Activity against I2/CENTR/R in the Eurofins SafetyScreen44 (BI) by Radioactive Assay; details: Rattus norvegicus; Compound concentration 10.0 uM
[3] = target: Mu-type opioid receptor (Homo sapiens) (UniProt P35372); test: Activity against MU/HU in the Eurofins SafetyScreen44 (BI) by Radioactive Assay; details: Compound concentration 10.0 uM
[4] = target: Sodium-dependent serotonin transporter (Homo sapiens) (UniProt P31645); test: Activity against 5HTTRANS/HU in the Eurofins SafetyScreen44 (BI) by Radioactive Assay; details: Compound concentration 10.0 uM
[5] = target: D(3) dopamine receptor (Homo sapiens) (UniProt P35462); test: Activity against D3/HU in the Eurofins SafetyScreen44 (BI) by Radioactive Assay; details: Compound concentration 10.0 uM
[6] = target: Muscarinic acetylcholine receptor M3 (Homo sapiens) (UniProt P20309); test: Activity against M3/HU in the Eurofins SafetyScreen44 (BI) by Radioactive Assay; details: Compound concentration 10.0 uM
[7] = target: B2 bradykinin receptor (Homo sapiens) (UniProt P30411); test: Activity against B2/HU in the Eurofins SafetyScreen44 (BI) by Radioactive Assay; details: Compound concentration 10.0 uM
[8] = target: Alpha-1D adrenergic receptor (Homo sapiens) (UniProt P25100); test: Activity against ALPHA1D/H in the Eurofins SafetyScreen44 (BI) by Others; details: Compound concentration 10.0 uM
Chain of Alpha-1D adrenergic receptor (Homo sapiens) (P25100 whole entry): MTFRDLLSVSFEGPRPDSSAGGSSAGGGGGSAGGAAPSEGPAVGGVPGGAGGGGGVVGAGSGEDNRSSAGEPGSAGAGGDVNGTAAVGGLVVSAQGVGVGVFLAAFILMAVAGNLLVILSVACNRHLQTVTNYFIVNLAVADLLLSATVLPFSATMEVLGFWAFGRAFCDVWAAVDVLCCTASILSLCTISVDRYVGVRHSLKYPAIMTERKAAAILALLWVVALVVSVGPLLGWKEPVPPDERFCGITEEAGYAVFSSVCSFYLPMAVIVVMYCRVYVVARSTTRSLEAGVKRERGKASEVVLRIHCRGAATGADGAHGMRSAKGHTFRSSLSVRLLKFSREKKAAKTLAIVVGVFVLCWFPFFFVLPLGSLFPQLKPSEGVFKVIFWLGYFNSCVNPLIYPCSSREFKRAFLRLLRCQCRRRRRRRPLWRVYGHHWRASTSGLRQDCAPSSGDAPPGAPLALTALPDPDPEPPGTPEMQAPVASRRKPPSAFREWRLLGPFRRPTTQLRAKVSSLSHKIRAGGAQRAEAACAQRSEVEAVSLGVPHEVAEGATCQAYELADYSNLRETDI

[9] = target: P2X purinoceptor (Oryctolagus cuniculus) (UniProt G1U3D6); test: Activity against P2X/RB in the Eurofins SafetyScreen44 (BI) by Radioactive Assay; details: Compound concentration 10.0 uM
Chain of P2X purinoceptor (Oryctolagus cuniculus) (G1U3D6 as listed by the source): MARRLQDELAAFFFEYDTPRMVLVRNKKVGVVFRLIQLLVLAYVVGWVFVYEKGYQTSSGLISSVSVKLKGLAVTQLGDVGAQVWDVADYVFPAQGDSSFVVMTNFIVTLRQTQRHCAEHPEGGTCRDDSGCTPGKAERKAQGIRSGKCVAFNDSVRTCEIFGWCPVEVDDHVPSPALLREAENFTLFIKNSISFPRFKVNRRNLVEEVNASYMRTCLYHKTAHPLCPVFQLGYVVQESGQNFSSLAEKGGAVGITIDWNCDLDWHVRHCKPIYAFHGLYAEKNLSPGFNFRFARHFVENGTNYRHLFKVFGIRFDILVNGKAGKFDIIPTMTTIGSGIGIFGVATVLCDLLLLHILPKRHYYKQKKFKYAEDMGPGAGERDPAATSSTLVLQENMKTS

[10] = target: Interleukin-1 receptor type 1 (Mus musculus) (UniProt P13504); test: Activity against IL-1ALPHA/M in the Eurofins SafetyScreen44 (BI) by Others; details: Compound concentration 10.0 uM
[11] = target: Epidermal growth factor receptor (Homo sapiens) (UniProt P00533); test: Activity against EGF/HU in the Eurofins SafetyScreen44 (BI) by Radioactive Assay; details: Compound concentration 10.0 uM
Chain of Epidermal growth factor receptor (Homo sapiens) (P00533 whole entry): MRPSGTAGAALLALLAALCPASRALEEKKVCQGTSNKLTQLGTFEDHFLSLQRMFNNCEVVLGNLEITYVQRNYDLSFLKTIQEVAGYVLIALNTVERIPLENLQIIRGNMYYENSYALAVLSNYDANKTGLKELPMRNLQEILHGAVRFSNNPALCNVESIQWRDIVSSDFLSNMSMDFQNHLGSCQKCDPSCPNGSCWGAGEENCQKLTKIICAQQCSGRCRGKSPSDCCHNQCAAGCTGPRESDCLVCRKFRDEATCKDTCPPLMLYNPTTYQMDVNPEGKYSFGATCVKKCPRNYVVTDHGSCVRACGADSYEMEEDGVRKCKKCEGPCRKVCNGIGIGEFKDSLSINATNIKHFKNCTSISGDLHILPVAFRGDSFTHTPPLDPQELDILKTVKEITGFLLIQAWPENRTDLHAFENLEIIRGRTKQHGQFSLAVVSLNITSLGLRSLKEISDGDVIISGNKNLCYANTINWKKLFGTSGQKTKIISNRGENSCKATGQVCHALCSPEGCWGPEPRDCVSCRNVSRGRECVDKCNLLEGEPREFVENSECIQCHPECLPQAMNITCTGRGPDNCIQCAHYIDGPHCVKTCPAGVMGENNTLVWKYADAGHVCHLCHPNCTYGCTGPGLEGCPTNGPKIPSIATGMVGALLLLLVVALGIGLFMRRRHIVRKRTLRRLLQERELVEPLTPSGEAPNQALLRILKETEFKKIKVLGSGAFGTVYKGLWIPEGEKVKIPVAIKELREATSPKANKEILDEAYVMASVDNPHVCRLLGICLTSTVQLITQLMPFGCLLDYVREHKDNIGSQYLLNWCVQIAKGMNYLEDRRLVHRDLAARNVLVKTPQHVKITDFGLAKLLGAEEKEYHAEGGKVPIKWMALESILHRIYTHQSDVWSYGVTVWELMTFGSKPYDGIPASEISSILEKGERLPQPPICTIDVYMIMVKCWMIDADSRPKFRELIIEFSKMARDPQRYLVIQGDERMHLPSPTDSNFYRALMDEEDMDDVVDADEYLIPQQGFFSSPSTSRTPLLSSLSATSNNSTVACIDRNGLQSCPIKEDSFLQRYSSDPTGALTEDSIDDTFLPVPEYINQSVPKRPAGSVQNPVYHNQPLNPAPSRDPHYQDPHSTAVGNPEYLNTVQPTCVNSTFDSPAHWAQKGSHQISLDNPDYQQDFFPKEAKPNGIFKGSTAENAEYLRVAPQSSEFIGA

[12] = target: Beta-1 adrenergic receptor (Homo sapiens) (UniProt P08588); test: Activity against BETA1/HU in the Eurofins SafetyScreen44 (BI) by Radioactive Assay; details: Compound concentration 10.0 uM
Chain of Beta-1 adrenergic receptor (Homo sapiens) (P08588 whole entry, looked up): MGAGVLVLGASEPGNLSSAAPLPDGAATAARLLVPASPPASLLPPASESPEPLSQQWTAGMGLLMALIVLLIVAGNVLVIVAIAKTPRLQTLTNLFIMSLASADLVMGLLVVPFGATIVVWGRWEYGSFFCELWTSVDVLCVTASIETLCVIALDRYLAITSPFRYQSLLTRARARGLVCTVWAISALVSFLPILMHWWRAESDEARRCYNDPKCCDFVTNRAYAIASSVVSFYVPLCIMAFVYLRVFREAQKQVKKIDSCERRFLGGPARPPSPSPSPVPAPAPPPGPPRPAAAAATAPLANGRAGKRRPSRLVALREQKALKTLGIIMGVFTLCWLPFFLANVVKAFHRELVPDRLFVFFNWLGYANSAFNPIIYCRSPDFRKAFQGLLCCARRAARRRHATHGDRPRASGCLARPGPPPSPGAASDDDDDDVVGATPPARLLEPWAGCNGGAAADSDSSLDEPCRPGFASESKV

[13] = target: Delta-type opioid receptor (Homo sapiens) (UniProt P41143); test: Activity against DELTA/HU in the Eurofins SafetyScreen44 (BI) by Radioactive Assay; details: Compound concentration 10.0 uM
[14] = target: L-type calcium channel, Cav1.2 alpha-1C (CA+/DILSI/RA) (Rattus norvegicus, UniProt P22002); test: Activity against CA+/DILSI/RA in the Eurofins SafetyScreen44 (BI) by Radioactive Assay; details: compound concentration 10 uM, read-out: % Ctrl
[15] = target: Substance-P receptor (Homo sapiens) (UniProt P25103); test: Activity against NK1/HU in the Eurofins SafetyScreen44 (BI) by Radioactive Assay; details: Compound concentration 10.0 uM
[16] = target: Platelet-activating factor receptor (Homo sapiens) (UniProt P25105); test: Activity against PAF/H in the Eurofins SafetyScreen44 (BI) by Radioactive Assay; details: Compound concentration 10.0 uM
[17] = target: Pyroglutamylated RF-amide peptide receptor (Homo sapiens) (UniProt Q96P65); test: Activity against GPR103 in the Eurofins SafetyScreen44 (BI) by Radioactive Assay; details: Compound concentration 10.0 uM
Chain of Pyroglutamylated RF-amide peptide receptor (Homo sapiens) (Q96P65 whole entry): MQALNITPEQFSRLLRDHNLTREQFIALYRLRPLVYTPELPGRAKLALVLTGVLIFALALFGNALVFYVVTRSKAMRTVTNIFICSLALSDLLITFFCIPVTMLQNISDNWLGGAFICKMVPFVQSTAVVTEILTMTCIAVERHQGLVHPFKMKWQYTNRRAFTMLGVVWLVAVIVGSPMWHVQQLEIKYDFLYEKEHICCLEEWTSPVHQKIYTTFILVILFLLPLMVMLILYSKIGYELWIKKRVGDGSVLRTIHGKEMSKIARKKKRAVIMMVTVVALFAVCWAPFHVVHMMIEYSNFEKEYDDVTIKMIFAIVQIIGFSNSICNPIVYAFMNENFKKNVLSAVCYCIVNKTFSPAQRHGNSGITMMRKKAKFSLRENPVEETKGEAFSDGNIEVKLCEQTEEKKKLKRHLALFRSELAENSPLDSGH

[18] = target: B1 bradykinin receptor (Rattus norvegicus, UniProt P97583); test: Radioligand binding assay (displacement of kallidin, rat BDKRB1 ) at 10 µM ( Non-specific binding is estimated in the presence of 10 µM Des-Arg9- (Leu8)-Bradykinin. Membranes are filtered and washed, the filters are then counted to determine [3H]Kallidin[des-Arg10, Leu9] specifically bound.); parameters: compound concentration 10 uM
[19] = target: Alpha-1A adrenergic receptor (Rattus norvegicus) (UniProt P43140); test: Activity against ALPHA1A/R in the Eurofins SafetyScreen44 (BI) by Others; details: Compound concentration 10.0 uM
[20] = target: Neuropeptide Y receptor type 1 (Homo sapiens) (UniProt P25929); test: Activity against Y1/HU in the Eurofins SafetyScreen44 (BI) by Radioactive Assay; details: Compound concentration 10.0 uM
Chain of Neuropeptide Y receptor type 1 (Homo sapiens) (P25929 whole entry): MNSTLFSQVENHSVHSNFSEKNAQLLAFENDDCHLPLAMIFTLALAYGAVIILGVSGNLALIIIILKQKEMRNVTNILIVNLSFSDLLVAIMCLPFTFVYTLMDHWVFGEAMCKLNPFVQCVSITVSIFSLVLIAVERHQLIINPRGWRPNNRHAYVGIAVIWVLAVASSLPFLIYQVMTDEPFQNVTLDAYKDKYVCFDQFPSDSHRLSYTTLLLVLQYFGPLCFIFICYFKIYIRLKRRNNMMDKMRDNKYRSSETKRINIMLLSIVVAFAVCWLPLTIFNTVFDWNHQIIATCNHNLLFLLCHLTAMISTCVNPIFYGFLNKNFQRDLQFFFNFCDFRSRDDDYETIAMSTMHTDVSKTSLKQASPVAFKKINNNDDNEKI

[21] = target: Alpha-1B adrenergic receptor (Rattus norvegicus) (UniProt P15823); test: Activity against ALPHA1B/R in the Eurofins SafetyScreen44 (BI) by Radioactive Assay; details: Compound concentration 10.0 uM
Chain of Alpha-1B adrenergic receptor (Rattus norvegicus) (P15823 whole entry, looked up): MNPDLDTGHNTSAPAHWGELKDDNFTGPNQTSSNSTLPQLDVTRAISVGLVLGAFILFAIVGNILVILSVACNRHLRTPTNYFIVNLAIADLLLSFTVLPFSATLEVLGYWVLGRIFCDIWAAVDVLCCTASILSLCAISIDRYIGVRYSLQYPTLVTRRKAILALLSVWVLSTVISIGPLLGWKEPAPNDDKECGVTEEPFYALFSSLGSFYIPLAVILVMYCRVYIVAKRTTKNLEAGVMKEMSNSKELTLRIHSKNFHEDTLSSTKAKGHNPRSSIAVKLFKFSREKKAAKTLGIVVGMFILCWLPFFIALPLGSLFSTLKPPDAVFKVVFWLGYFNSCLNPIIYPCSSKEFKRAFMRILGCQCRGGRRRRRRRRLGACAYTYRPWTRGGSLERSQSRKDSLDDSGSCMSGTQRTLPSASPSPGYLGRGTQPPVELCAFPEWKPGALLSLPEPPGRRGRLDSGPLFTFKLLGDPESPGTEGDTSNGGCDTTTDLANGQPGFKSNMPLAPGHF

[22] = target: Adenosine receptor A2a (Homo sapiens) (UniProt P29274); test: Activity against A2A/HU in the Eurofins SafetyScreen44 (BI); details: Compound concentration 10.0 uM
[23] = target: Voltage-dependent N-type calcium channel subunit alpha-1B (Rattus norvegicus) (UniProt Q02294); test: Activity against CA+/N/RA in the Eurofins SafetyScreen44 (BI) by Radioactive Assay; details: Compound concentration 10.0 uM
[24] = target: Androgen receptor (Rattus norvegicus) (UniProt P15207); test: Activity against TESTOST/RA in the Eurofins SafetyScreen44 (BI) by Others; details: Compound concentration 10.0 uM
Chain of Androgen receptor (Rattus norvegicus) (P15207 whole entry S389L): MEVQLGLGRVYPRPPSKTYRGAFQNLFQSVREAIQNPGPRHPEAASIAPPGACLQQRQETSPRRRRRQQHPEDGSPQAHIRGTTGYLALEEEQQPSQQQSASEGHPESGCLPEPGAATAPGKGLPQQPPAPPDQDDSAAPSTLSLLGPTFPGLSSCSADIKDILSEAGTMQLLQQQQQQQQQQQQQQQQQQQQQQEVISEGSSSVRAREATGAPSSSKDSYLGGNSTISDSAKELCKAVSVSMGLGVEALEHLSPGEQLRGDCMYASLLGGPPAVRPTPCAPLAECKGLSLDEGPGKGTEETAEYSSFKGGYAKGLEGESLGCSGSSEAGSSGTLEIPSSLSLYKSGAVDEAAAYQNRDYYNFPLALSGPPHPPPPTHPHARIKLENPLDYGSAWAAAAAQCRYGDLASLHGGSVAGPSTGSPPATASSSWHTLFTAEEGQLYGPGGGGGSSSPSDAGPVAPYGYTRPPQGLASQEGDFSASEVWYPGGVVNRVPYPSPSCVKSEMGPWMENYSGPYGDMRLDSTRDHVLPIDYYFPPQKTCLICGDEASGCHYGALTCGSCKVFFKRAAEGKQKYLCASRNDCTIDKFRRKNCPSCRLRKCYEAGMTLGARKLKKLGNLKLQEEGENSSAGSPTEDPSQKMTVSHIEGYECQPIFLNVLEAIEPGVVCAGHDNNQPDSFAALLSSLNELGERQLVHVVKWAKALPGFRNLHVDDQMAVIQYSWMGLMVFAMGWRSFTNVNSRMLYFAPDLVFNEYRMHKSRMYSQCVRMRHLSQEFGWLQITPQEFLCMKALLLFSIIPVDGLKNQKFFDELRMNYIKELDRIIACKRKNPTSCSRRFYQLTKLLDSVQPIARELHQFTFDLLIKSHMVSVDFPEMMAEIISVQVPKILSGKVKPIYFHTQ

[25] = target: Muscarinic acetylcholine receptor M1 (Homo sapiens) (UniProt P11229); test: Activity against M1/HU in the Eurofins SafetyScreen44 (BI) by Radioactive Assay; details: Compound concentration 10.0 uM
[26] = target: Nicotinic acetylcholine receptor alpha-1/beta-1 (Homo sapiens) (UniProt P02708+P11230); test: Activity against NACH_BS_N/H in the Eurofins SafetyScreen44 (BI) by Radioactive Assay; assay type: protein-complex assay; details: Compound concentration 10.0 uM
[27] = target: B2 bradykinin receptor (Homo sapiens, UniProt P30411); test: Radioligand binding assay (displacement of kallidin, human BDKRB2 ) at 10 µM ( Non-specific binding is estimated in the presence of 10 µM Des-Arg9- (Leu8)-Bradykinin. Membranes are filtered and washed, the filters are then counted to determine [3H]Kallidin[des-Arg10, Leu9] specifically bound.); parameters: compound concentration 10 uM
[28] = target: D(2) dopamine receptor (Homo sapiens) (UniProt P14416); test: Activity against D2S/HU in the Eurofins SafetyScreen44 (BI) by Radioligand Binding; details: Compound concentration 10.0 uM
[29] = target: Glutamate receptor ionotropic, NMDA 1 (Rattus norvegicus) (UniProt P35439); test: Inhibitor of NMDAGLSI/RA in the Eurofins SafetyScreen44 (BI) by Scintillation counting; details: Compound concentration 10.0 uM
[30] = target: Endothelin receptor type B (Homo sapiens) (UniProt P24530); test: Activity against ETB/HUM in the Eurofins SafetyScreen44 (BI) by Radioactive Assay; details: Compound concentration 10.0 uM
[31] = target: P2Y purinoceptor 1 (Rattus norvegicus) (UniProt P49651); test: Activity against P2Y/RAT in the Eurofins SafetyScreen44 (BI) by Radioactive Assay; details: Compound concentration 10.0 uM
[32] = target: D(4) dopamine receptor (Homo sapiens) (UniProt P21917); test: Activity against D4.2/H in the Eurofins SafetyScreen44 (BI) by Radioactive Assay; details: Compound concentration 10.0 uM
[33] = target: Muscarinic acetylcholine receptor M2 (Homo sapiens) (UniProt P08172); test: Activity against M2/HU in the Eurofins SafetyScreen44 (BI) by Radioactive Assay; details: Compound concentration 10.0 uM
[34] = target: Type-1 angiotensin II receptor (Homo sapiens) (UniProt P30556); test: Activity against AT1/HU in the Eurofins SafetyScreen44 (BI) by Radioligand Binding; details: Compound concentration 10.0 uM

COc1cc(C)c(S(=O)(=O)N(C)CCOCC(=O)N(C)[C@H]2CCC[C@@H](N3CCN(C)CC3)C2)c(C)c1
residual activity [1]: 93% | residual activity [2]: 60% | residual activity [3]: 91% | residual activity [4]: 108% | residual activity [5]: 86% | residual activity [6]: 84% | residual activity [7]: 108% | residual activity [8]: 96% | residual activity [9]: 100% | residual activity [10]: 79% | residual activity [11]: 125% | residual activity [12]: 105% | residual activity [13]: 86% | activity at 10 µM [14]: 86% (not active) | residual activity [15]: 109% | residual activity [16]: 87% | residual activity [17]: 105% | Ki [18]: 0.0133 µM (active) | residual activity [19]: 118% | residual activity [20]: 109% | residual activity [21]: 96% | residual activity [22]: 97% | residual activity [23]: 100% | residual activity [24]: 96% | residual activity [25]: 88% | residual activity [26]: 96% | Ki [27]: > 10 µM (not active) | residual activity [28]: 105% | residual activity [29]: 93% | residual activity [30]: 104% | residual activity [31]: 108% | residual activity [32]: 101% | residual activity [33]: 61% | residual activity [34]: 115%
